Laboratory results taken from ChEMBL document CHEMBL5370531, “Design, synthesis and pharmacological evaluation of 2,3-dihydrobenzofuran IRAK4 inhibitors for the treatment of diffuse large B-cell lymphoma” (Eur J Med Chem, 2023).
Calls of active or inactive are those of the source. No cut-off for these calls is given here.

Columns and labels:
OCI-Ly10 [1] = assay: Induction of apoptosis in human OCILY10 cells assessed as late apoptotic cells at 1 uM incubated for 24 hrs by Annexin V-FITC/PI staining based flow cytometry (reference value: 3.71 %); format: functional
[2] = target: Interleukin-1 receptor-associated kinase 4 (Homo sapiens) (UniProt Q9NWZ3); assay: Inhibition of IRAK4 in human OCILY10 cells assessed as downregulation of IRAK4 phosphorylation level by immunoblotting analysis; format: cell-based
OCI-Ly10 [3] = assay: Induction of apoptosis in human OCILY10 cells assessed as upregulation of PARP cleavage at 0.1 to 1 uM incubated for 24 hrs by immunoblotting analysis; format: functional, cell-based; conditions: dose 0.1-1 µM
[4] = target: Vascular endothelial growth factor receptor 3 (Homo sapiens) (UniProt P35916); assay: Inhibition of VEGFR3 (unknown origin) at 100 nM incubated for 1 hr in presence of ATP by ELISA analysis
OCI-Ly10 [5] = assay: Synergistic antiproliferative activity against human OCILY10 cells harboring MYD88 L265P assessed as inhibition of cell growth at 100 nM incubated for 72 hrs in presence of BTK inhibitor, ibrutinib at 6.2 nM by CCK-8 assay (reference value: 21.36 %); format: functional
OCI-Ly10 [6] = assay: Induction of apoptosis in human OCILY10 cells harboring MYD88 L265P assessed as upregulation of caspase-3 cleavage at 0.2 uM in presence of BTK inhibitor, ibrutinib by immunoblotting analysis; format: functional, cell-based
OCI-Ly10 [7] = assay: Induction of apoptosis in human OCILY10 cells assessed as upregulation of caspase-3 cleavage at 0.1 to 1 uM incubated for 48 hrs by immunoblotting analysis; format: functional, cell-based; conditions: dose 0.1-1 µM
OCI-Ly10 [8] = assay: Induction of apoptosis in human OCILY10 cells harboring MYD88 L265P assessed as upregulation of PARP cleavage at 0.1 uM in presence of BTK inhibitor, ibrutinib by immunoblotting analysis; format: functional, cell-based
[9] = target: Vascular endothelial growth factor receptor 1 (Homo sapiens) (UniProt P17948); assay: Inhibition of VEGFR1 (unknown origin) at 100 nM incubated for 1 hr in presence of ATP by ELISA analysis
OCI-Ly10 [10] = assay: Synergistic antiproliferative activity against human OCILY10 cells harboring MYD88 L265P assessed as inhibition of cell growth at 800 nM incubated for 72 hrs in presence of BTK inhibitor, ibrutinib at 25 nM by CCK-8 assay (reference value: 54.76 %); format: functional
OCI-Ly10 [11] = assay: Induction of apoptosis in human OCILY10 cells assessed as early apoptotic cells at 1 uM incubated for 24 hrs by Annexin V-FITC/PI staining based flow cytometry (reference value: 10 %); format: functional
OCI-Ly10 [12] = assay: Induction of apoptosis in human OCILY10 cells at 0.5 uM incubated for 48 hrs by Annexin V-FITC/PI staining based flow cytometry; format: functional
OCI-Ly10 [13] = assay: Synergistic antiproliferative activity against human OCILY10 cells harboring MYD88 L265P assessed as inhibition of cell growth at 100 nM incubated for 72 hrs in presence of BTK inhibitor, ibrutinib at 1.6 nM by CCK-8 assay (reference value: 21.36 %); format: functional
[14] = target: Macrophage colony-stimulating factor 1 receptor (Homo sapiens) (UniProt P07333); assay: Inhibition of CSF1R (unknown origin) at 100 nM incubated for 1 hr in presence of ATP by ELISA analysis
OCI-Ly10 [15] = assay: Synergistic antiproliferative activity against human OCILY10 cells harboring MYD88 L265P assessed as inhibition of cell growth at 200 nM incubated for 72 hrs in presence of BTK inhibitor, ibrutinib at 25 nM by CCK-8 assay (reference value: 26.07 %); format: functional
[16] = target: Insulin-like growth factor 1 receptor (Homo sapiens) (UniProt P08069); assay: Inhibition of IGFR1 (unknown origin) at 100 nM incubated for 1 hr in presence of ATP by ELISA analysis
OCI-Ly10 [17] = assay: Induction of apoptosis in human OCILY10 cells assessed as upregulation of caspase-3 cleavage at 0.1 to 1 uM incubated for 24 hrs by immunoblotting analysis; format: functional, cell-based; conditions: dose 0.1-1 µM
OCI-Ly10 [18] = assay: Synergistic antiproliferative activity against human OCILY10 cells harboring MYD88 L265P assessed as inhibition of cell growth at 200 nM incubated for 72 hrs in presence of BTK inhibitor, ibrutinib at 6.2 nM by CCK-8 assay (reference value: 26.07 %); format: functional
[19] = target: Ephrin type-A receptor 2 (Homo sapiens) (UniProt P29317); assay: Inhibition of EPHA2 (unknown origin) at 100 nM incubated for 1 hr in presence of ATP by ELISA analysis
OCI-Ly10 [20] = assay: Synergistic antiproliferative activity against human OCILY10 cells harboring MYD88 L265P assessed as inhibition of cell growth at 400 nM incubated for 72 hrs in presence of BTK inhibitor, ibrutinib at 12.5 nM by CCK-8 assay (reference value: 34.46 %); format: functional
OCI-Ly10 [21] = assay: Synergistic antiproliferative activity against human OCILY10 cells harboring MYD88 L265P assessed as inhibition of cell growth at 100 nM incubated for 72 hrs in presence of BTK inhibitor, ibrutinib at 12.5 nM by CCK-8 assay (reference value: 21.36 %); format: functional
[22] = target: Insulin receptor (Homo sapiens) (UniProt P06213); assay: Inhibition of IR (unknown origin) at 100 nM incubated for 1 hr in presence of ATP by ELISA analysis
[23] = target: Platelet-derived growth factor receptor beta (Homo sapiens) (UniProt P09619); assay: Inhibition of PDGFR-beta (unknown origin) at 100 nM incubated for 1 hr in presence of ATP by ELISA analysis
OCI-Ly10 [24] = assay: Induction of apoptosis in human OCILY10 cells assessed as late apoptotic cells at 0.1 uM incubated for 24 hrs by Annexin V-FITC/PI staining based flow cytometry (reference value: 3.71 %); format: functional
OCI-Ly10 [25] = assay: Synergistic antiproliferative activity against human OCILY10 cells harboring MYD88 L265P assessed as inhibition of cell growth at 1600 nM incubated for 72 hrs in presence of BTK inhibitor, ibrutinib at 3.1 nM by CCK-8 assay (reference value: 64.69 %); format: functional
OCI-Ly10 [26] = assay: Induction of apoptosis in human OCILY10 cells harboring MYD88 L265P assessed as early apoptotic cells at 0.1 uM incubated for 48 hrs in presence of BTK inhibitor, ibrutinib by Annexin V-FITC/PI staining based flow cytometry (reference value: 6.76 %); format: functional
OCI-Ly10 [27] = assay: Induction of apoptosis in human OCILY10 cells assessed as late apoptotic cells at 0.1 uM incubated for 48 hrs by Annexin V-FITC/PI staining based flow cytometry (reference value: 3.54 %); format: functional
OCI-Ly10 [28] = assay: Induction of apoptosis in human OCILY10 cells assessed as late apoptotic cells at 0.5 uM incubated for 48 hrs by Annexin V-FITC/PI staining based flow cytometry (reference value: 3.54 %); format: functional
OCI-Ly10 [29] = assay: Induction of apoptosis in human OCILY10 cells harboring MYD88 L265P assessed as late apoptotic cells at 0.2 uM incubated for 48 hrs in presence of BTK inhibitor, ibrutinib by Annexin V-FITC/PI staining based flow cytometry (reference value: 6.59 %); format: functional

Sequence of Interleukin-1 receptor-associated kinase 4 (Homo sapiens) (Q9NWZ3 whole entry): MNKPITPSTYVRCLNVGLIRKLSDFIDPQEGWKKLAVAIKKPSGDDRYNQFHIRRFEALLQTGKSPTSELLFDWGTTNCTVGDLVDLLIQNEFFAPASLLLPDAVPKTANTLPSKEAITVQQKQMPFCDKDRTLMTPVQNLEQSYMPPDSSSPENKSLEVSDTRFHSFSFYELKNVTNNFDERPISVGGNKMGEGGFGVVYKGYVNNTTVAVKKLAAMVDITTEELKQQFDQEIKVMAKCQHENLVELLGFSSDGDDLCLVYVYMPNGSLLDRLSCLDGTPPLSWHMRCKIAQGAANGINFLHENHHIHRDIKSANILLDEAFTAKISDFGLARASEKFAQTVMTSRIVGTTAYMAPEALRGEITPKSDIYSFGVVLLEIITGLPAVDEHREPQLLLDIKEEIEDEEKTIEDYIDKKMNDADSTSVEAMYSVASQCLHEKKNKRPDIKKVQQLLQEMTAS
Sequence of Platelet-derived growth factor receptor beta (Homo sapiens) (P09619 whole entry): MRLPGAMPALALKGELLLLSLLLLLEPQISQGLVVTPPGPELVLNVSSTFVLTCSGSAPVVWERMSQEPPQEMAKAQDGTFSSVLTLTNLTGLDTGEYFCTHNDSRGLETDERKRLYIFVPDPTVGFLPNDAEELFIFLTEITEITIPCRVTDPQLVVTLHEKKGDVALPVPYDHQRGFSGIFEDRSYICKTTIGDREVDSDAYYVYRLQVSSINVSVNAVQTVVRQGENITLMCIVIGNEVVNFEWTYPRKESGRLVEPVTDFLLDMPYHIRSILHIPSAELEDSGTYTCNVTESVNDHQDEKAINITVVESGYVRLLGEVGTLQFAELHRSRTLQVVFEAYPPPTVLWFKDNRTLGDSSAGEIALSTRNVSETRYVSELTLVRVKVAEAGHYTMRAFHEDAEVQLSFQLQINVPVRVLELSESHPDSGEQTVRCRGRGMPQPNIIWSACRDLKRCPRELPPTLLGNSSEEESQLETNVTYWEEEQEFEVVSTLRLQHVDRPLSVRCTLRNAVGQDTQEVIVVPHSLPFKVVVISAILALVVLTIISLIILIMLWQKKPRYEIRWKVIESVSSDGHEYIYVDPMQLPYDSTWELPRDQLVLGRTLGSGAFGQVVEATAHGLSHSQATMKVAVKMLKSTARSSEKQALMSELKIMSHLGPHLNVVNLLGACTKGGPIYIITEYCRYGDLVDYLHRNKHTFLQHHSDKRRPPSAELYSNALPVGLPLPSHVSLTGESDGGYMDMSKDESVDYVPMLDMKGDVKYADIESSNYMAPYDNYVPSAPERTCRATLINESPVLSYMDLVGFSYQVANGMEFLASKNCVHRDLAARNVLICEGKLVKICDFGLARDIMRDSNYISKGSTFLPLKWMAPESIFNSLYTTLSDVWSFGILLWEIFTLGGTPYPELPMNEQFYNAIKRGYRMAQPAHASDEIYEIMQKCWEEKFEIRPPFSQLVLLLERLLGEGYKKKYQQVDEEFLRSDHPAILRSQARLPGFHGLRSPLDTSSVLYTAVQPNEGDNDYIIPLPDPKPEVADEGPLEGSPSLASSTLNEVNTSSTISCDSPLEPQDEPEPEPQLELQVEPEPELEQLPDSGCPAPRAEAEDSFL
Sequence of Ephrin type-A receptor 2 (Homo sapiens) (P29317 whole entry): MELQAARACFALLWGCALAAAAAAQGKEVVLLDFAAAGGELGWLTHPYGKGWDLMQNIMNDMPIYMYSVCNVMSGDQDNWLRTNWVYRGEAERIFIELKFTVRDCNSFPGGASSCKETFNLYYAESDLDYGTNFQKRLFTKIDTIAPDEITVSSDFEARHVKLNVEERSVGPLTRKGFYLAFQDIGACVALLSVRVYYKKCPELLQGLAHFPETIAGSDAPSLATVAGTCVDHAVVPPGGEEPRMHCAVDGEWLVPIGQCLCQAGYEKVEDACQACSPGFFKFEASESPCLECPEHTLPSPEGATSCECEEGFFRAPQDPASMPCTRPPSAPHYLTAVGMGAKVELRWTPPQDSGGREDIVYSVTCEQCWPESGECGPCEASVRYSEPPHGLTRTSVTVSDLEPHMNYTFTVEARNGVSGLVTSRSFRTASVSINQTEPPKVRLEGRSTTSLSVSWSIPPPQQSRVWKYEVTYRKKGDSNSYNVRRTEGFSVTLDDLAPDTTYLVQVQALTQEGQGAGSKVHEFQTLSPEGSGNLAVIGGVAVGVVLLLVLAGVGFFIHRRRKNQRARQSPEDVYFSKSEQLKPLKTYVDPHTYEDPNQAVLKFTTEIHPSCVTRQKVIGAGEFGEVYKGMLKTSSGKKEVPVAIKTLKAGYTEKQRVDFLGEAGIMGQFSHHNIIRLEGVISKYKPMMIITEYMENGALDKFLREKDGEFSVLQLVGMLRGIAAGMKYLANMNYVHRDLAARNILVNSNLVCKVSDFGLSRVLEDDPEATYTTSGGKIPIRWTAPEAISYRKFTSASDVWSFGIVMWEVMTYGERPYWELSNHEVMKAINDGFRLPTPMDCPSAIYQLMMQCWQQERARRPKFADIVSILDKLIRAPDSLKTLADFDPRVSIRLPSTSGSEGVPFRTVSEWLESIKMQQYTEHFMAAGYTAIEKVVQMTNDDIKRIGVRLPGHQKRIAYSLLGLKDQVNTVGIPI
Sequence of Vascular endothelial growth factor receptor 1 (Homo sapiens) (P17948 whole entry): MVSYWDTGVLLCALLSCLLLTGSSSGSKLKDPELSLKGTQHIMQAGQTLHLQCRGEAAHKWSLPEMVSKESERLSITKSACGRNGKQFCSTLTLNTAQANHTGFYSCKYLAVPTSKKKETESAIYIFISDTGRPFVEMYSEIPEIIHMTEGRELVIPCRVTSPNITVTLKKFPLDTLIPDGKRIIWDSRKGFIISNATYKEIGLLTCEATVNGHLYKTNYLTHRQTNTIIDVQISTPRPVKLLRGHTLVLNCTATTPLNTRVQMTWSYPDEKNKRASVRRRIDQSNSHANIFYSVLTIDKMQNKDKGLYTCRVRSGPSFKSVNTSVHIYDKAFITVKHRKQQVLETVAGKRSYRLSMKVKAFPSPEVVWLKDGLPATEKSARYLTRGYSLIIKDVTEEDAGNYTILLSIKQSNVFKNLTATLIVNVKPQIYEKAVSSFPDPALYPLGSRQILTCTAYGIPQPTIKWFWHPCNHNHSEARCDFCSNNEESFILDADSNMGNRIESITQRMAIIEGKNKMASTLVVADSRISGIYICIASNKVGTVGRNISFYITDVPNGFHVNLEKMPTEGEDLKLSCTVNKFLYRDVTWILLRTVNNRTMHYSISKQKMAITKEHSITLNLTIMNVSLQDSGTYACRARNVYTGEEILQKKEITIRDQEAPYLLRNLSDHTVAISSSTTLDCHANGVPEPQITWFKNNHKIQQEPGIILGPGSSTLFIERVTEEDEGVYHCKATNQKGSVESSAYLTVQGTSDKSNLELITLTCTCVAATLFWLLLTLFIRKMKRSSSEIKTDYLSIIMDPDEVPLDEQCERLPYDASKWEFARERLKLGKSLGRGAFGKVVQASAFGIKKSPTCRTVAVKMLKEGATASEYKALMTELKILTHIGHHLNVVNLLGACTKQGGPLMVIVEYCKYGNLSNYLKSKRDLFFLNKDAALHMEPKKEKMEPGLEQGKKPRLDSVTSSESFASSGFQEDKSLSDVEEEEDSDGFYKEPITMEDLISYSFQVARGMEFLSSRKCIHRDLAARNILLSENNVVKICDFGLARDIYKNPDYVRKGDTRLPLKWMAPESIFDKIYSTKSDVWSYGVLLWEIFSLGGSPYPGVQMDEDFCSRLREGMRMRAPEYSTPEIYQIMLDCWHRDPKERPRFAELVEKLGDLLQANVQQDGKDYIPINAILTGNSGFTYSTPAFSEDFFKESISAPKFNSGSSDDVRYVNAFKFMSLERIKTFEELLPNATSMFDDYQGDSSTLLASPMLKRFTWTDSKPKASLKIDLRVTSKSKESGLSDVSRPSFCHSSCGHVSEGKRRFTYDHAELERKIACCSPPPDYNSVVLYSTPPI
Sequence of Macrophage colony-stimulating factor 1 receptor (Homo sapiens) (P07333 whole entry): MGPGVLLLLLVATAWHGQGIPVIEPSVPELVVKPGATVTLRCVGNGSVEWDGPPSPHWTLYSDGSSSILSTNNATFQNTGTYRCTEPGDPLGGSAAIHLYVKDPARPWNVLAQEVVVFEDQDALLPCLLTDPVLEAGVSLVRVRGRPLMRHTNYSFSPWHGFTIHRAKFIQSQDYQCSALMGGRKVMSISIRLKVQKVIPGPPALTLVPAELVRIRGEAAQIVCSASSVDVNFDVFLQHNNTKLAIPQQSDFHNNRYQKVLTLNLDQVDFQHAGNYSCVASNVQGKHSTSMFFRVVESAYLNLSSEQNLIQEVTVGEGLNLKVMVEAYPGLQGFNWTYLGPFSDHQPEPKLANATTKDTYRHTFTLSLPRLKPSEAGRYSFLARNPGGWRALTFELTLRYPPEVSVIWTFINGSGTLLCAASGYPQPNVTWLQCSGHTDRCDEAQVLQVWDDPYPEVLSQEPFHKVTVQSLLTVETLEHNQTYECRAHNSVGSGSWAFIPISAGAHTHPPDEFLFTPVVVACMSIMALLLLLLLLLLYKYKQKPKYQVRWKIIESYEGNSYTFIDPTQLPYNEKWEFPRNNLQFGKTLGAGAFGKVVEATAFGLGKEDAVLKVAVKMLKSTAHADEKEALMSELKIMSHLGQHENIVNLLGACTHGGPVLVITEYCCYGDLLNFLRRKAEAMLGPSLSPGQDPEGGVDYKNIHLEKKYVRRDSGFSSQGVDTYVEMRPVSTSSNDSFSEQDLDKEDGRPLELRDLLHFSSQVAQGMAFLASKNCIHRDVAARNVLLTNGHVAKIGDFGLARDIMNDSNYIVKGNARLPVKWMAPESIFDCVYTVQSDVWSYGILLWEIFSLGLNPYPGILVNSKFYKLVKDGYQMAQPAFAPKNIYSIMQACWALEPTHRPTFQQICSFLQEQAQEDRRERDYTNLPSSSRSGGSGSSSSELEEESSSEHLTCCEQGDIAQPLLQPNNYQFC

Structure (SMILES): Cn1cc(-c2cc3c(cc2NC(=O)c2coc(-c4ccnc(N)c4)n2)CC(C)(C)O3)cn1
- Activity (OCI-Ly10 [1]): 33.7%
- inhibition [2]: Dose-Dependent Effect
- Activity (OCI-Ly10 [3]): Active
- inhibition [4]: inactive
- inhibition at 0.1 µM (OCI-Ly10 [5]): 44.9%
- Activity (OCI-Ly10 [6]): Active
- Activity (OCI-Ly10 [7]): Active
- Activity (OCI-Ly10 [8]): Active
- inhibition [9]: inactive
- inhibition at 0.8 µM (OCI-Ly10 [10]): 88.4%
- Activity (OCI-Ly10 [11]): 36.4%
- Activity (OCI-Ly10 [12]): 67.2%
- inhibition at 0.1 µM (OCI-Ly10 [13]): 23.7%
- inhibition [14]: inactive
- inhibition at 0.2 µM (OCI-Ly10 [15]): 75.4%
- inhibition [16]: inactive
- Activity (OCI-Ly10 [17]): Active
- inhibition at 0.2 µM (OCI-Ly10 [18]): 53.8%
- inhibition [19]: inactive
- inhibition at 0.4 µM (OCI-Ly10 [20]): 75.7%
- inhibition at 0.1 µM (OCI-Ly10 [21]): 62.1%
- inhibition [22]: inactive
- inhibition [23]: inactive
- Activity (OCI-Ly10 [24]): 7.94%
- inhibition at 1.6 µM (OCI-Ly10 [25]): 77.3%
- Activity (OCI-Ly10 [26]): 14.2%
- Activity (OCI-Ly10 [27]): 7.93%
- Activity (OCI-Ly10 [28]): 26.8%
- Activity (OCI-Ly10 [29]): 33.2%
